# Measurements from patent US20030109418A1, “Methods for identifying compounds for inhibition of neoplastic lesions, and pharmaceutical compositions containing such compounds” (priority 1999, published 2003).
# Like-named read-outs stand apart in the source and are kept apart here.
# Legend:
# [1] = system: HT-29 colon adenocarcinoma cells; test: Apoptosis by DNA fragmentation assay in HT-29; type: cell-based, human; on Apoptosis: key: −: Not active; +: Slightly active; ++: Moderately active; +++: Strongly active; ++++: Highly active
# [2] = system: cGMP PDE purified from human colon HT-29 cultured tumor cells; test: cGMP PDE inhibition assay; type: biochemical; conditions: for PDE Inhibition: qualitative activity profile; for IC50: read-out: IC50 for inhibition of cGMP PDE, HT-29 cell enzyme
# [3] = system: premalignant lesions in mouse mammary gland organ culture; test: Mammary gland organ culture model; type: cell-based; conditions: qualitative activity profile; further: key: −: Not active; +: Slightly active; ++: Moderately active; +++: Strongly active; ++++: Highly active
# Description: Test compounds identified by the above methods can be tested for antineoplastic activity by their ability to inhibit the incidence of pre-neoplastic lesions in a mammary gland organ culture system. This mouse mammary gland organ culture technique has been successfully used by other investigators to study the effects of known antineoplastic agents such as certain NSAIDs, retinoids, tamoxifen, selenium, and certain natural products, and is useful for validation of the screening method of the present invention.
# For example, female BALB/c mice can be treated with a combination of estradiol and progesterone daily, in order to prime the glands to be responsive to hormones in vitro. The animals are sacrificed, and thoracic mammary glands are excised aseptically and incubated for ten days in growth media supplemented with insulin, prolactin, hydrocortisone, and aldosterone. DMBA (7,12-dimethylbenz(a)anthracene) is added to medium to induce the formation of premalignant lesions. Fully developed glands are then deprived of prolactin, hydrocortisone, and aldosterone, resulting in the regression of the glands but not the pre-malignant lesions.
# The test compound is dissolved in DMSO and added to the culture media for the duration of the culture period. At the end of the culture period, the glands are fixed in 10% formalin, stained with alum carmine, and mounted on glass slides. The incidence of forming mammary lesions is the ratio of the glands with mammary lesions to […]. The incidence of mammary lesions in test compound treated glands is compared with that of the untreated glands.
# The extent of the area occupied by the mammary lesions can be quantitated by projecting an image of the gland onto a digitation pad. The area covered by the gland is traced on the pad and considered as 100% of the area. The space covered by each of the non-regressed structures is also outlined on the digitization pad and quantitated by the computer.
# Mammary gland organ culture experiment were performed as previously described (Mehta and Moon, Cancer Research, 46: 5832-5835, 1986). […] The data support the hypothesis that cyclooxygenase inhibition is not necessary for the anti-neoplastic properties of desired compounds.
# [4] = molecular target: T1, purified cyclooxygenase (Type 1, COX-I) from ram seminal vesicles (Ovis aries, UniProt P05979); test: COX inhibition assay, purified cyclooxygenase; type: biochemical; conditions: for COX Inhibition: qualitative activity profile; for inhibition at 100 µM: read-out: Cyclooxygenase inhibitory activity, % Inhibition at 100 μM
# T1 construct: using purified cyclooxygenase from ram seminal vesicles as described previously; tissue Cayman Chemical, Ann Arbor, Mich; (named in the general protocol only); host or cells: ram seminal vesicles
# T1 sequence (P05979 25-600): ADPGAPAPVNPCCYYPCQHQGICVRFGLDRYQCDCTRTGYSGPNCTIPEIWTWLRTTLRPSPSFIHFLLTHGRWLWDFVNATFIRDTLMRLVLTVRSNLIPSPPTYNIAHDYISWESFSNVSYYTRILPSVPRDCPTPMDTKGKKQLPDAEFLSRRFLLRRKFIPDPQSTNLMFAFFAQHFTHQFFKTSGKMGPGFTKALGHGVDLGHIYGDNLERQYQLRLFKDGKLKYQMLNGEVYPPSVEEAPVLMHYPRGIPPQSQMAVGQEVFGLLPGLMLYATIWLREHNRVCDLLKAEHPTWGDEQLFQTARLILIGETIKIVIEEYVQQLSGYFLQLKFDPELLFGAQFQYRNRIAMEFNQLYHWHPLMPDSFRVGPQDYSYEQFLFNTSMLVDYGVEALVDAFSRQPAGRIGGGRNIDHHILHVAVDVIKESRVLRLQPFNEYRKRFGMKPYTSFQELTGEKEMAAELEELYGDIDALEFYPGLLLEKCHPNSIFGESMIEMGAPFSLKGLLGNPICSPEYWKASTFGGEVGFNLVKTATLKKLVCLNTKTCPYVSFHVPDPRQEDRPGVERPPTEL
# [5] = system: SW-480 colon adenocarcinoma cells
# [6] = system: HT-29 human colon carcinoma cell line; test: Growth inhibition, SRB assay, HT-29; type: cell-based; design: Growth Inhibition: key to the marks not given beside the values
# [7] = molecular target: T2, PDE peak A (PDE5) from SW480 cells (Homo sapiens, UniProt O76074); test: cGMP hydrolysis inhibition, PDE peak A from SW480; type: biochemical
# T2 construct: endogenous in cells; host or cells: SW480 colon cancer cells, DEAE-Trisacryl M fraction
# [8] = molecular target: novel cGMP-specific PDE peak B from SW480 cells (Homo sapiens); test: cGMP hydrolysis inhibition, novel PDE peak B (Section IA) from SW480; type: biochemical; conditions: Section IA Peak B, cGMP hydrolysis, 0.25 μM 3H-cGMP
# Sequence of novel cGMP-specific PDE peak B from SW480 cells (Homo sapiens) (O00408 2-941): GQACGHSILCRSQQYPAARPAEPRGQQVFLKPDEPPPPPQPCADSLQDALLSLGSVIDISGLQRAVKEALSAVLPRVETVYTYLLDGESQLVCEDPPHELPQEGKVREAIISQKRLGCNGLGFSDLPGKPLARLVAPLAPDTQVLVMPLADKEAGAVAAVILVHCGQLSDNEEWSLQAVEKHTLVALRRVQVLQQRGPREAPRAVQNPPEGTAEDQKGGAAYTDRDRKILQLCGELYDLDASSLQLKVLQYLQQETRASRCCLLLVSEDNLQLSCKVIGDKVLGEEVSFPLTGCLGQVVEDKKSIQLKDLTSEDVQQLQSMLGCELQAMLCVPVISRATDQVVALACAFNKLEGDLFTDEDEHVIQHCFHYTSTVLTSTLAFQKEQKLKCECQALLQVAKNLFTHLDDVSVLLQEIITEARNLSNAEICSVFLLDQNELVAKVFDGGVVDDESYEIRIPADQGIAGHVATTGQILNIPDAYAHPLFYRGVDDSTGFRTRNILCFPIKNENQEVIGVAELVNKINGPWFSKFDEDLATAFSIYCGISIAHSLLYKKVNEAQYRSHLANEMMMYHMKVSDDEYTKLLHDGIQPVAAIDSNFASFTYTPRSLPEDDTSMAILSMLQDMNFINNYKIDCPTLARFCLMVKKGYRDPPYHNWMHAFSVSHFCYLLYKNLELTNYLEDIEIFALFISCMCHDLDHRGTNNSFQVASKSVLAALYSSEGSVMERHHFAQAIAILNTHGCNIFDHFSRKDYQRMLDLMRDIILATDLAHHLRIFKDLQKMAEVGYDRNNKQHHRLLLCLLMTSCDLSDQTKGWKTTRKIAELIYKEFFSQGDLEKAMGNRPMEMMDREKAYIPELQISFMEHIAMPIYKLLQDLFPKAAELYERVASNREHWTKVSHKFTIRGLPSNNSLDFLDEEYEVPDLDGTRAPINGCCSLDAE
# [9] = molecular target: T3, classic PDE2 (Peak B) from SW480 (Homo sapiens, UniProt O00408); test: Inhibition of classic PDE2 Peak B isolated with ethylene glycol buffers; type: biochemical
# T3 construct: endogenous in cells; host or cells: SW480 cells, non-FPLC DEAE column with 30% ethylene glycol buffers
# T3 sequence (O00408 whole entry): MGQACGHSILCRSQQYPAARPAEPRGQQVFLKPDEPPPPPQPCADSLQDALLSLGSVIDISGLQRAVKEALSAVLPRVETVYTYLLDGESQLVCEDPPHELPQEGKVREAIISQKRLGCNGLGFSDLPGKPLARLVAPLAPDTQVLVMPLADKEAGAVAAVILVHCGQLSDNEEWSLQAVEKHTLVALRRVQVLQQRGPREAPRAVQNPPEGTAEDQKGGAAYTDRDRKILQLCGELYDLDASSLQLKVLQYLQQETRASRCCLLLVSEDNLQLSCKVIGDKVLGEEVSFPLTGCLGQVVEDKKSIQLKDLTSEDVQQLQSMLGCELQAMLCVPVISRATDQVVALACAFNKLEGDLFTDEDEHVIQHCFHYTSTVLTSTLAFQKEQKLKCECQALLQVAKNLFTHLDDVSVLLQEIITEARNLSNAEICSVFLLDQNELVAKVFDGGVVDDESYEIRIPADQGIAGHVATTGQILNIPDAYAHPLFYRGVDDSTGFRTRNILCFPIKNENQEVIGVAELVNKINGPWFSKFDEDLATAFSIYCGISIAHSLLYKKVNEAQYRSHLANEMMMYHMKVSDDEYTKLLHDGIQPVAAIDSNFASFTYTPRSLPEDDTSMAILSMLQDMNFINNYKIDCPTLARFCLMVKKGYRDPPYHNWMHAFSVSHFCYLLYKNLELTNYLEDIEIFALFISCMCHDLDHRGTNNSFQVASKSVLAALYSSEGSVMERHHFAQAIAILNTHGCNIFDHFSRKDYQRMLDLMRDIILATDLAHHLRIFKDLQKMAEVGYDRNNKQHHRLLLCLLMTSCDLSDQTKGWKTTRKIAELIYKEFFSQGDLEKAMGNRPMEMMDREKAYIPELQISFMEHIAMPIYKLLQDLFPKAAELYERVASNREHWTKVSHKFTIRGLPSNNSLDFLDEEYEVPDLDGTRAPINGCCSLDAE
# Method: A second method used to isolate classic PDE2 from SW480 was done using a non-FPLC DEAE column procedure described above (see Section IA) with the modification that the buffers contained 30% ethylene glycol, 10 mM TLCK and 3.6 mM β-mercaptoethanol. The addition of these reagents to the buffers causes a shift in the elution profile (see FIG. 25) from low to high sodium acetate so that peak A moves from 40 to 150 mM, peak B from 75 to 280 mM and peak C from 200 to 500 mM Na acetate (see FIG. 25).
# [10] = system: SW-480 colon adenocarcinoma cells; test: Apoptosis fold induction protocol (DNA fragmentation ELISA); conditions: cell line not given
# [11] = system: PDE4 purified from human colon HT-29 cultured tumor cells; test: PDE4 inhibition assay; type: biochemical; conditions: HT-29 cell enzyme
# [12] = molecular target: T4, cGMP binding sites of the GST-cGB-PDE5 protein (Homo sapiens, UniProt O76074); test: cGMP binding assay with GST-cGB-PDE5 fusion protein; conditions: 3H-cGMP 2 μM
# T4 construct: made in house; host or cells: E. coli BL21 (DE3)
# [13] = system: peak B's from SW480, HTB-26, and LnCAP; test: cGMP PDE activity of peak B's isolated by FPLC; type: biochemical; conditions: 100 nM inhibitor
# Method: The novel Peak B was also isolated from two other neoplastic cell lines, a breast cancer cell line, HTB-26 and a prostate cancer cell line, LnCAP by a procedure similar to the one above used to isolate it from SW480. The protocol was modified in several respects. To provide even greater reproducibility to allow comparison of different cell lines, a Pharmacia AKTA FPLC was used to control sample loading and elution on an 18 mL DEAE TrisAcryl M column. SW840 was run by this same procedure multiple times to provide a reference of peak B. 200-400 million cells of SW480 were used for the profiles. 70 million cells of LnCAP were used for a profile (see FIGS. 22 and 23), and in a separate experiment 32 million cells of HTB-26 were used for a profile (see FIGS. 20 and 21). After re-suspending cells in homogenization buffer, samples were manually homogenized. FPLC buffer A was 8 mM TRIS-acetate, 5 mM Mg acetate, 0.1 mM EDTA, pH 7.5 and buffer B was 8 mM TRIS-acetate, 5 mM Mg acetate, 0.1 mM EDTA, 1 M Na acetate, pH 7.5. Supernatants were loaded onto the column at 1 mL per minute, followed by a wash with 60 mL buffer A at 1 mL per minute. A gradient was run from 0-15% buffer B in 60 mL, 15-50% buffer B in 60 mL, and 50-100% buffer B in 16 mL. During the gradient 1.5 mL fractions were collected.
# [14] = molecular target: novel cGMP-specific PDE peak B from SW480 cells (Homo sapiens, UniProt O00408); test: cGMP hydrolysis inhibition, novel PDE peak B (Section IA) from SW480; type: biochemical
# Sequence of novel cGMP-specific PDE peak B from SW480 cells (O00408 2-941): as the sequence (O00408 2-941) above
# PC-3 = test: Growth inhibition, neutral red assay, PC-3; type: cell-based, human; conditions: Homo sapiens, PC-3; neutral red assay (Schmid et al.); read-out: IC50 (μM), Human Prostate Carcinoma PC3
# Method: (§1) Compound I's activity is not confined to activity against colon cancer cell lines or animal models of colon cancer. It has a broad range of anti-neoplastic effects in various neoplastic cell lines. Various types of human cancer cell lines were propagated under sterile conditions in RPMI 1640 medium with 10% fetal bovine serum, 2 mM L-glutamine and sodium bicarbonate. To determine growth inhibitory effects of Compound I, cells were seeded in 96-well plates at a density of 1000 cells per well. Twenty-four hours after plating, the cells were dosed with various concentrations of the free base of Compound I solubilized in DMSO (final concentration 0.1%). The effect of the drug on tumor cell growth was determined using the neutral red cytotoxicity assay following five days of continuous treatment. Neutral red is a dye that is selectively taken up by viable cells by an ATP-dependent transport mechanism.
# Colo 205 = test: Growth inhibition, neutral red assay, Colo 205; type: cell-based, human; conditions: Homo sapiens, COLO 205; neutral red assay (Schmid et al.)
# Method: as §1
COX Inhibition [4],IC50 [11],IC50 [2],inhibition at 100 µM [4],SMILES,"cGMP PDE inhibitory activity, % Inhibition at 10 μM [2]",PDE Inhibition [2],"Growth-inhibitory activity, % Inhibition at 100 μM [6]",competition with cGMP in binding of GST-cGB-PDE5 [12],COX-I inhibition (FIG. 5) [4],also measured
−,,,,"CCN(CC)CCSC12CC(=O)OC1(C)/C(=C/c1ccc(S(C)(=O)=O)cc1)c1ccc(F)cc12 (racemic) [A, rac-threo-(E)-1-(N,N′-diethylaminoethanethio)-1-(butan-1′,4′-olido)-[3′,4′: 1,2]-6-fluoro-2-methyl-3-(p-methylsulfonylbenzylidene)-indan]",<25%,−,68%,,,"Apoptosis ([1]; qualitative activity profile): ++; Mammary Gland Organ Culture [3]: ++; Cyclooxygenase inhibitory activity, % Inhibition at 100 μM ([4]; 100 μM): <25%; Apoptosis-inducing activity, Fold induction at 100 μM [5]: <2.0 fold; Growth Inhibition ([6]; qualitative activity profile): +++"
,,,,CCCCCC[C@@H]([C@@H](C)O)n1cnc2c(N)ncnc21 (racemic) [EHNA],,,,,,"IC50 ([7]; cGMP hydrolysis, 0.25 μM 3H-cGMP): > 100 µM; IC50 [8]: 3.7 µM; IC50 ([9]; 2.0 μM cAMP substrate, read-out: IC50, cAMP PDE activity in Peak B): 3800 nM; IC50 ([9]; read-out: IC50, cAMP PDE activity in Peak B with rolipram, 2.0 μM cAMP substrate, addition of 10 μM rolipram): 2500 nM; IC50 ([9]; read-out: IC50, cGMP PDE activity in Peak B, 2 μM cGMP substrate): 1600 nM; Apoptosis-inducing activity, Fold induction at 100 μM ([10]; 100 μM): <2.0 fold"
−,58 µM,18 µM,< 25%,"COc1cc(C=C2C(C)=C(CC(=O)O)c3cc(F)ccc32)cc(OC)c1OC [Compound B, (Z)-5-Fluoro-2-methyl-1-(3,4,5-trimethoxybenzylidene)-3-acetic acid]",<25%,+++,,do not bind to the cGMP binding sites of PDE5,neither test compound B and E significantly inhibit COX-I,"EC50 ([1]; Homo sapiens, HT-29, 48 hours): ~175 µM; fold induction at 100 µM ([10]; Homo sapiens, SW480, read-out: Apoptosis-inducing activity, Fold induction at 100 μM, 100 μM): > 2"
,,,,O=C(O)C1CCN(c2nc(NCc3ccc4c(c3)OCO4)c3cc(Cl)ccc3n2)CC1 [Compound E4021],,,<50%,do not bind to the cGMP binding sites of PDE5,,"sensitivity of peak B's cGMP PDE activity [13]: resistant; IC50 ([6]; HT-29 treated for 6 days, SRB assay, read-out: Growth inhibition (IC50)): > 100 µM"
−,> 25 µM,0.08 µM,< 25%,"COc1cc(/C=C2/C(C)=C(CC(=O)NCc3ccccc3)c3cc(F)ccc32)cc(OC)c1OC [Compound E, (Z)-5-Fluoro-2-methyl-1-(3,4,5-trimethoxybenzylidene)-3-indenylacetamide, N-benzyl]",75%,++++,,do not bind to the cGMP binding sites of PDE5,neither test compound B and E significantly inhibit COX-I,Ratio (IC50 Peak A/Peak B) [7]: 1.0; competitive (with cGMP) binding to PDE 5 (peak A) [7]: does competitively (with cGMP) bind; competitive (with cGMP) binding to PDE peak B [14]: competitively (with cGMP) binds; IC50 (PC-3): 0.9 µM; IC50 (Colo 205): 1.62 µM
